Measurements reported in patent US11938129B2, “Methods and compositions for the treatment of vascular disease” (THE GENERAL HOSPITAL CORPORATION, priority 2018, dated 2024).
Entries after “also recorded” stand apart in the source; their conditions may differ. {FAM} = FAM fluorophore (/36-FAM/)

Legend:
[1] = tested on: neointimal formation in ligated carotid; experiment: murine carotid artery ligation model: neointimal formation and stenosis (histology); assay type: in vivo, mouse; details: wild-type mice, left carotid ligation, 21 days; GSK343 in drinking water from 24 hrs before ligation for 3 weeks; GapmeR 15 nmol 24 hrs before and 7 days post-ligation
Protocol: (§1) All mice used in this study were cared for under strict compliance with the Partners Institutional Animal Care and Use Committee (IACUC), regulated by the United States Public Health Service (USPHS). Carotid ligations were performed in 10 week old mice. Briefly, animals were anesthetized using intraperitoneal ketamine/xylazine (80 and 12 mg/kg, respectively) followed by a small incision in the neck to expose the carotid artery. Then the left carotid was ligated at the carotid bifurcation level using a 8-0 silk suture. At 21 days mice were sacrificed and carotids were collected for histological analysis. Approximately 98% of wild type mice developed stenotic lesions. Mice that developed thrombosis of the ligated carotid were excluded from the study (−1¬2%). Malatl knockout mice were kindly provided by Dr. David Spector (Cold Spring Harbor, N.Y.). Hdac9 flox/flox/Talgn-cre mice were generated as previously reported (10). […]
(§2) Left and right carotids were cryosectioned using OCT standard protocol and sectioning. […] Slides 1, 5, 10, and 15 were H&E stained for quantification of neointima. For quantification of the neointima, internal and external elastic lamina perimeters and medial thickness from 4 quadrants were measured and averaged using Image J software from the National Institutes of Health (NIH). […]

a-SMA and SM22a = experiment: immunofluorescence of contractile proteins in ligated carotids; assay type: in vivo, mouse
Protocol: All mice used in this study were cared for under strict compliance with the Partners Institutional Animal Care and Use Committee (IACUC), regulated by the United States Public Health Service (USPHS). Carotid ligations were performed in 10 week old mice. Briefly, animals were anesthetized using intraperitoneal ketamine/xylazine (80 and 12 mg/kg, respectively) followed by a small incision in the neck to expose the carotid artery. Then the left carotid was ligated at the carotid bifurcation level using a 8-0 silk suture. At 21 days mice were sacrificed and carotids were collected for histological analysis. Approximately 98% of wild type mice developed stenotic lesions. Mice that developed thrombosis of the ligated carotid were excluded from the study (−1¬2%). Malatl knockout mice were kindly provided by Dr. David Spector (Cold Spring Harbor, N.Y.). Hdac9 flox/flox/Talgn-cre mice were generated as previously reported (10). Ezh2 fl/fl/ (STOCK Ezh2tm2Sho/J) and Myh11-cre-GFP (B6.Cg-Tg(Myh11-cre,-EGFP)2Mik/J) were crossed to generate smooth muscle cell-Ezh2 deficient mice. All above mice and wild-type mice (C57BL/6J) were purchased from Jackson laboratory. For tissue analysis, animals were euthanized through inhalational isoflurane (Sigma, St, Louis, Mo.) prior to tissue collection. All carotid ligation (left carotid) procedures were performed at 10 weeks of age. All experiments were performed on male and female animals at a 1:1 ratio.
Left and right carotids were cryosectioned using OCT standard protocol and sectioning. The right carotid artery was unligated and served as an internal control. Neoinitima analysis was performed from hematoxylin and eosin (H & E) stained horizontal cross-sections embedded in Optimal Cutting Temperature compound (OCT). Briefly, the distal 0.2 mm of carotid from the ligation suture site were discarded followed by generation of 20 slides (10 pM). Slides 1, 5, 10, and 15 were H&E stained for quantification of neointima. For quantification of the neointima, internal and external elastic lamina perimeters and medial thickness from 4 quadrants were measured and averaged using Image J software from the National Institutes of Health (NIH). Slides 2-4, 6-9, and 11-14 were used for immunofluorescence staining.
Cohorts of 10-week-old wild-type mice were treated with oral administration in drinking water of GSK343 24 hrs before left carotid ligation and following treatment for 3 weeks. GSK343 inhibitor (25 mg) was dissolved in 1 mL of DMSO to obtain a stock solution of 46 mM. Then, 250 ml of drinking water was supplemented with 250 pl of GSK343 stock solution. Control group for was given with equal volumes of sterile water. Bottles containing GSK343 were replaced with fresh water supplied with drug every 3 days. […]

Mmp9 = experiment: immunofluorescence of Mmp9 in ligated carotid; assay type: in vivo, mouse; details: arterial media and intima of carotid arteries
Protocol: as §1, §2

Hdac9 = experiment: immunofluorescence of Hdac9 in ligated carotid; assay type: in vivo, mouse; details: arterial media and intima of carotid arteries
Protocol: as §1, §2

MMP2 and MMP9 activity = experiment: in vivo MMP activity (MMPSense 750 FAST) after carotid ligation; design: species or system mouse; details: 24 h post injection, ligated mice
Protocol: Mice were tail vein injected with 600 uL of MMPSense 750 FAST, a near-infrared fluorescence sensor for MMP2 and MMP9 activity, (PerkinElmer, USA). Mice were sacrificed 24 h post injection and aortas were dissected and analyzed using a Kodak image station 4000MM Pro for macroscopic fluorescence reflectance molecular imaging.
Cohorts of 10-week-old wild-type mice were treated with oral administration in drinking water of GSK343 24 hrs before left carotid ligation and following treatment for 3 weeks. GSK343 inhibitor (25 mg) was dissolved in 1 mL of DMSO to obtain a stock solution of 46 mM. Then, 250 ml of drinking water was supplemented with 250 pl of GSK343 stock solution. Control group for was given with equal volumes of sterile water. Bottles containing GSK343 were replaced with fresh water supplied with drug every 3 days. For Malatl antisense LNA treatments, cohorts of 10-week-old wild-type mice were injected with 15 nmol in saline solution 24 hrs before left carotid ligation following by a second injection 7 days post-ligation.

FAK = experiment: immunofluorescence of p-FAK in ligated carotid; assay type: in vivo, mouse; details: media and intima of carotid arteries
Protocol: as §1, §2

PDGFR = experiment: immunofluorescence of p-PDGFR in ligated carotid; assay type: in vivo, mouse; details: media and intima of carotid arteries
Protocol: as §1, §2

H3K27me3 = H3K27me3 staining in aortas of treated Fbn1C1039G/+ mice; assay type: in vivo, mouse; details: compared to control or losartan treated mice
Protocol: (§3) Latex was injected into the left ventricular apex under low pressure until it was visible in the femoral artery. Animals were then fixed in Formalin (10%) for 24 hours before transfer to 70% ethanol for dissection and storage. Aortas were then removed from the animals or dissected in situ for photography prior to paraffinization and sectioning (10 pM). Slides were produced for tissue staining or stained with standard stains including H&E staining, collagen deposition (Trichrome Stain (Masson) Kit, Sigma, USA), elastin (Verhoeff-Van Gieson, Thermo Scientific, MI, USA) or F-actin (ActinGreen™ 488 ReadyProbes, ThermoFisher Scientific, USA) for quantitative analysis. Elastin integrity score was rated by blinded observers and graded on an arbitrary scale of 5 (indicating high quality elastic fiber) to 1 (indicating severe elastin fragmentation). For nuclear staining aortas from human and mice were cryosectioned using OCT standard protocol as described previously (Fischer et al., 2008). Cohorts of 8-week-old wild-type or Fbn1cw3gGi+ mice were treated with oral administration in drinking water of either Losartan or GSK343 for 20 weeks (FIG. 5). […] Then 200 mL of drinking water was supplemented with 250 pL of GSK343 stock solution. […] Aortic dimensions were monitored monthly by echocardiograms as mentioned above.

[2] = tested on: aortic wall of Fbn1C1039G/+ mice; experiment: histologic analysis of aortas of treated Fbn1C1039G/+ mice; assay type: in vivo, mouse; details: aortas of Fbn1C1039G/+ mice treated from two to six months
Protocol: Latex was injected into the left ventricular apex under low pressure until it was visible in the femoral artery. Animals were then fixed in Formalin (10%) for 24 hours before transfer to 70% ethanol for dissection and storage. Aortas were then removed from the animals or dissected in situ for photography prior to paraffinization and sectioning (10 pM). Slides were produced for tissue staining or stained with standard stains including H&E staining, collagen deposition (Trichrome Stain (Masson) Kit, Sigma, USA), elastin (Verhoeff-Van Gieson, Thermo Scientific, MI, USA) or F-actin (ActinGreen™ 488 ReadyProbes, ThermoFisher Scientific, USA) for quantitative analysis. Elastin integrity score was rated by blinded observers and graded on an arbitrary scale of 5 (indicating high quality elastic fiber) to 1 (indicating severe elastin fragmentation). For nuclear staining aortas from human and mice were cryosectioned using OCT standard protocol as described previously (Fischer et al., 2008). Cohorts of 8-week-old wild-type or Fbn1cw3gGi+ mice were treated with oral administration in drinking water of either Losartan or GSK343 for 20 weeks (FIG. 5). […] Then 200 mL of drinking water was supplemented with 250 pL of GSK343 stock solution. Control group for either drug treatment was given with equal volumes of sterile water. Bottles containing either losartan or GSKS343 were replaced with fresh water supplied with drugs every 3 days. For experiments described in FIG. 5A-5C, 16-week-old wild-type or Fbnicw3gGi+ mice were treated for 8 weeks and as described above. Additionally, a group of mice were given a combination of both losartan and GSK343 at the same concentrations as of other single drug treatments. Aortic dimensions were monitored monthly by echocardiograms as mentioned above.

[3] = tested on: aortic aneurysm in Fbn1C1039G/+ mice; experiment: experimental aortic aneurysm in Fbn1C1039G/+ mice: echocardiographic aortic dimensions; assay type: in vivo, mouse; details: Fbn1C1039G/+ mice treated from two to six months of life, drinking water
Excerpt: Dimensions from each animal represent averages of measurements made on still frames in systole of the maximal internal diameter of the aortic valve annulus, aortic sinuses, sinotubular junction, or ascending aorta by a cardiologist blinded to genotype. The aorta was imaged using a standard parasternal long axis view. Based on historic controls, the mean diameter of the wild type aortic root at 4 months of life is 1.73+/-0.2 mm while in our disease model (Fbn1ci°[…]/+) the mean diameter is 2.15+/-0.3 mm. […] Nair hair removal cream was used on all mice the day prior to echocardiograms. All echocardiograms were performed on awake, unsedated mice using the Visualsonics Vevo imaging system and a 30 MHz transducer. All CT images were acquired using an Inveon small animal micro CT (Siemens Medical Solutions Inc., Malven, Pa.). All mice received intravenous iodinated contrast (Isovue-370, Bracco Diagnostic Inc.) at 20 pL/min during the scan. […] Images were visualized and analyzed in OsiriX software. Cohorts of 8-week-old wild-type or Fbn1cw3gGi+ mice were treated with oral administration in drinking water of either Losartan or GSK343 for 20 weeks (FIG. 5). […] Then 200 mL of drinking water was supplemented with 250 pL of GSK343 stock solution. […] Aortic dimensions were monitored monthly by echocardiograms as mentioned above.

TGF-β signaling = experiment: TGF-β activity by phosphorylation of Smad2 or Erk1 in aortas of treated mice; assay type: in vivo, mouse; details: aortic tissue of treated Fbn1C1039G/+ mice
Protocol: as §3

SM22a = experiment: immunostaining of SM22a protein in aortas of treated Fbn1C1039G/+ mice; assay type: in vivo, mouse; details: compared to control Fbn1C1039G/+ mice
Protocol: as §3

VSMC phenotypic markers = experiment: expression of VSMC phenotypic markers in aortas of treated Fbn1C1039G/+ mice; assay type: in vivo, mouse; details: aortas of Fbn1C1039G/+ mice treated from two to six months
Protocol: Total RNA was prepared from tissue or primary cells using RNeasy kit (Qiagen) following the manufacturer's protocol. The cDNA was prepared by reverse transcription, and expression of SMC contractile genes were analyzed by qRT-PCR on SYBR green system (Applied Biosystem, Foster city, CA). 50 pL of plasma from wild-type or Fbn1cl° 39G1+ mice were used to prepare total RNA as mentioned above. Expression results were analyzed by the ddCT method and GAPDH (encoding glyceraldehyde-3-phosphate dehydrogenase) was used as a housekeeping gene. Fold change were calculated by taking the average over all the control samples as the baseline. […] The supernatant was removed and the vesicular fraction was resuspended with 750 pL of TRizol reagent followed by RNA extraction using the RNeasy kit (Qiagen) according to the manufacturer's protocol. Cohorts of 8-week-old wild-type or Fbn1cw3gGi+ mice were treated with oral administration in drinking water of either Losartan or GSK343 for 20 weeks (FIG. 5). […] Then 200 mL of drinking water was supplemented with 250 pL of GSK343 stock solution. Control group for either drug treatment was given with equal volumes of sterile water. Bottles containing either losartan or GSKS343 were replaced with fresh water supplied with drugs every 3 days. For experiments described in FIG. 5A-5C, 16-week-old wild-type or Fbnicw3gGi+ mice were treated for 8 weeks and as described above. Additionally, a group of mice were given a combination of both losartan and GSK343 at the same concentrations as of other single drug treatments. Aortic dimensions were monitored monthly by echocardiograms as mentioned above.

[4] = delivery of fluorescently labeled GapmeR to the vasculature; assay type: in vivo, mouse; details: ligated carotid of GapmeR treated mice, not in vehicle and GSK343 treated mice

## GapmeR-Malatl: GapmeR antisense oligonucleotide against MALAT1, GTCACAATGCATTCTA (SEQ ID NO: 1) (LNA gapmer, pattern not given here)
[1]
  extent of the stenotic response / neointimal formation: significant inhibition of neointimal formation; also recorded: dramatically improved the extent of the stenotic response
a-SMA and SM22a; ligated carotids of treated mice
  expression of contractile proteins such as a-SMA and SM22a: improved the expression of contractile proteins
Mmp9
  accumulation of Mmp9: decreased accumulation
Hdac9
  accumulation of Hdac9: decreased accumulation
MMP2 and MMP9 activity
  activity of MMPs: Inhibition of Mmp activity; also recorded: inhibited the activity of MMPs
FAK
  phosphorylation of FAK: dramatic reduction
PDGFR
  phosphorylation of PDGFR: dramatic reduction

## CCCCc1nc(Cl)c(CO)n1Cc1ccc(-c2ccccc2-c2nnn[n-]2)cc1.[K+] [Losartan]
H3K27me3
  H3K27me3 staining / aortic medial H3K27me3 modifications: did not
[2]
  aortic architecture and filamentous actin content: improvement
  elastin integrity: improve elastin integrity overall
[3]
  aortic dimensions: ability to improve aortic dimensions
TGF-β signaling
  TGF-β activity as assessed by phosphorylation of Smad2 or Erk1 protein: reduced
SM22a
  SM22a protein expression (immunostaining of aortas): recovery of SM22a protein expression
VSMC phenotypic markers
  synthetic markers (Col1a1, Col3a1, Gja1, Mmp2): better ability to decrease

## 3′-FAM-GapmeR-Malatl: fluorescently labeled GapmeR against MALAT1, GTCACAATGCATTCTA/36-FAM/ (SEQ ID NO: 2) (3' {FAM}, sugars by position and backbone not given here; LNA gapmer)
[4]
  detection of 3′-FAM labeled GapmeR in ligated carotid: Detection
a-SMA and SM22a; ligated carotid, in contrast to carotid VSMCs in wild type animals
  expression of α-SMA in carotid VSMCs: robust expression
